The record followed here is patent US20100152261A1 (MITSUBISHI TANABE PHARMA CORPORATION, priority 2005, published 2010).

One assay deals with T1, muscarinic M2 receptor (Cavia porcellus, UniProt H0VRN8).
T1 construct: left atria were excised to prepare tissue specimens; from tissue; host or cells: isolated guinea pig left atrium (male Hartley)
T1 sequence (H0VRN8 1-466): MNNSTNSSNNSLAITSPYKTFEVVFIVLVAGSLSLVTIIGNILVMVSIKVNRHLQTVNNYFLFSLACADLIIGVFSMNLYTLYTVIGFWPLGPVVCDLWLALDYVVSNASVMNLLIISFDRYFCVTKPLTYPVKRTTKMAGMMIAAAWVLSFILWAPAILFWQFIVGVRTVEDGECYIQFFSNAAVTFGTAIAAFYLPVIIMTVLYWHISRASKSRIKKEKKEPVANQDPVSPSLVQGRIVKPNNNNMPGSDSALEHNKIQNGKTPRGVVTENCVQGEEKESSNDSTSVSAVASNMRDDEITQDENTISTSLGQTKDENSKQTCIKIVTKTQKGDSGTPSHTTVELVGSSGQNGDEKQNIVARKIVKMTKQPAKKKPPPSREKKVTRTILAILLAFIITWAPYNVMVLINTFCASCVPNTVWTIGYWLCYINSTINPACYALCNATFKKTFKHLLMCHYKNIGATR
As to the kind of experiment: Muscarinic M2 antagonistic action in isolated guinea pig left atrium (carbachol-induced relaxation, Schild method). The class given is cell-based. Conditions: compound applied 30 minutes before carbachol. The procedure:
Muscarinic M2 Antagonistic Action in Isolated Guinea Pig Left Atrium […] Each tissue specimen was kept warm at 37° C., suspended with a resting tension of 0.5 g in a 5-mL Magnus bath filled with a Krebs carbonate buffer bubbled with 95% O2/5% CO2. Then, contraction evoked by field electrical stimulation (4 Hz, 2 msec, 1.5×threshold potential) was measured. After a stabilization period of 60 minutes, carbachol-induced relaxation was isometrically measured and recorded by the cumulative method from 10^−8 M with an interval of 90 seconds for one concentration in an equal ratio of 3. After the measurement, the tissue specimen was immediately washed, and left for 45 minutes as a stabilization period before the next observation. The tissue specimen of which EC50 for the carbachol-induced relaxation was stabilized was considered as a control. Each test compound was applied 30 minutes before the addition of carbachol. The affinity (pA2) of the test compound was obtained in the same manner as in the case of the trachea.

Another assay deals with T2, muscarinic M3 receptor (Cavia porcellus, UniProt H0W1Z3).
T2 construct: trachea was excised, and cut at every two tracheal cartilages to prepare tissue specimens; from tissue; host or cells: isolated guinea pig trachea (male Hartley)
As to the kind of experiment: Muscarinic M3 antagonistic action in isolated guinea pig trachea (carbachol-induced contraction, Schild method). Format: cell-based. Conditions: compound applied 15 minutes before carbachol. As to the method: Muscarinic M3 Antagonistic Action in Isolated Guinea Pig Trachea
Male Hartley guinea pigs (350 to 600 g) were sacrificed by bleeding, and trachea was excised, and cut at every two tracheal cartilages to prepare tissue specimens. Each tissue specimen was kept warm at 37° C., suspended with a resting tension of 1 g in a 5-mL Magnus bath filled with a Krebs carbonate buffer containing indomethacin (1 μM) bubbled with 95% O2/5% CO2, and left for 60 minutes as a stabilization period. […] After the measurement, the tissue specimen was immediately washed, and left for 60 minutes as a stabilization period before the next contraction reaction, and the tissue specimen of which EC50 for the carbachol-induced contraction reaction was stabilized was considered as a control. Each test compound was applied 15 minutes before the addition of carbachol. The affinity (pA2) of the test compound was obtained by the Schild method (Arunlakshana, O. and Schild, H. O., Brit. J. Pharmacol., 1959, 14, 48-58).

Assay [1] has as its system Bronchoconstriction in Guinea Pigs (induced with acetylcholine). Nature of the assay: Effect on bronchoconstriction in guinea pigs (via inhalation administration), Konzett method. The class given is in vivo. To be noted: Cavia porcellus, iv; guinea pig, intratracheal administration 10 μL g/head, 24 hours after administration, acetylcholine 4 μg/kg i.v., versus control group; read-out: Percent of inhibition of bronchoconstriction (%). The procedure:
Effect on Bronchoconstriction in Guinea Pigs (Via Inhalation Administration)
The test was performed according to the method of Konzett et al. (Arch. Exp. Path Pharmak., 1940, 195, 71-74). Male Hartley guinea pigs (350 to 600 g) were anesthetized with urethane (1.8 g/kg, i.p.), and then a cannula for drug administration was inserted into each left jugular vein. After the immobilization with decamethonium (2 mg/kg, i.v.), a tracheal cannula was inserted, and controlled respiration was attained by a respirator (Harvard). Bronchoconstriction was measured as changes of airway pressure with a pressure transducer (Nihon Kohden Corp.). Each test compound was administered (10 μL g/head) from dissected trachea by using a device for intratracheal administration of liquid for guinea pigs (Penn Century), and after suture, the animals were returned to usual breeding. After 24 hours, acetylcholine (4 μg/kg, i.v.) was administered to induce bronchoconstriction, and inhibitory activity on bronchoconstriction was calculated as percent inhibition comparing to the change of airway pressure in control group was obtained.

[2] abbreviates: pA2 Left atrium M2, isolated guinea pig left atrium.
Setting [3] is: pA2 Trachea M3, isolated guinea pig trachea.
[4] abbreviates: isolated guinea pig left atrium, read-out: pA2 Left atrium M2 (converted).
[5] abbreviates: isolated guinea pig trachea, read-out: pA2 Trachea M3 (converted).

SMILES strings stand for the structures. Where two headings read alike, the source gives them in different places.

T2 sequence (H0W1Z3 1-590): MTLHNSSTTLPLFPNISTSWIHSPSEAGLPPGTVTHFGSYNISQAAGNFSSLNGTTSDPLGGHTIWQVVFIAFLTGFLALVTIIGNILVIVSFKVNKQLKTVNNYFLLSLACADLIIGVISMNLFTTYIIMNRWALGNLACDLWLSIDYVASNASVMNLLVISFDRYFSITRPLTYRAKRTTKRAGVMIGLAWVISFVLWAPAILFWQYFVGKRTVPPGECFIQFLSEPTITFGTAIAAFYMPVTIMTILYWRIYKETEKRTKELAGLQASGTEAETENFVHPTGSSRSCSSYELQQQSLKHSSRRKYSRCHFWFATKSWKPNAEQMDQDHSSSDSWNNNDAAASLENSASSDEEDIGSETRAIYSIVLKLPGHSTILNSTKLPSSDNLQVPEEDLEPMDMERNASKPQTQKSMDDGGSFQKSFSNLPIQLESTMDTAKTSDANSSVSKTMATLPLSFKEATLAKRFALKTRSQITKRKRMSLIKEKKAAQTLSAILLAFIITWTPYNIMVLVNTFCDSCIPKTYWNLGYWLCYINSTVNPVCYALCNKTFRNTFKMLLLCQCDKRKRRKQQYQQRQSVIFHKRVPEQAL

With `C[n+]1ccn([C@H]2CC[C@H](C(C(N)=O)(c3ccccc3)c3ccccc3)C2)c1` (relative stereo) [Example 59, 3-(trans-3-(Carbamoyl(diphenyl)methyl)cyclopentyl)-1-methyl-3H-imidazol-1-ium iodide], the Kb at muscarinic M2 receptor (setting [2]) was 20 nM; at muscarinic M3 receptor (setting [3]), 0.794 nM. For the same compound, the inhibition in vivo at 0.01 mg in assay [1] was determined as 90%.
Turning to `Cc1nccn1[C@@H]1CC[C@H](C(C(N)=O)(c2ccccc2)c2ccccc2)C1` (relative stereo) [Reference Example 5, 2-(cis-3-(2-Methylimidazol-1-yl)cyclopentyl)-2,2-diphenylacetamide, reference compound], the Kb on muscarinic M2 receptor (setting [4]) is 50.1 nM; on muscarinic M3 receptor (setting [5]), 0.794 nM. Besides, the inhibition in vivo at 0.01 mg in assay [1] came out at 0%.
For `CC1=NCCN1[C@@H]1CC[C@H](C(C(N)=O)(c2ccccc2)c2ccccc2)C1` (relative stereo) [Reference Example 13, 2-(cis-3-(2-Methyl-4,5-dihydroimidazol-1-yl)cyclopentyl)-2,2-diphenylacetamide, reference compound], in that order: 79.4 nM, 5.01 nM and 20%.
As to `CC1=[N+](C)CCN1[C@@H]1CC[C@H](C(C(N)=O)(c2ccccc2)c2ccccc2)C1` [Example 60, 3-((1R,3S)-3-(Carbamoyl(diphenyl)methyl)cyclopentyl)-1,2-dimethyl-4,5-dihydro-3H-imidazol-1-ium para-toluenesulfonate], the figures for the Kb on muscarinic M2 receptor (setting [4]) and at muscarinic M3 receptor (setting [5]) were 15.8 nM and 0.631 nM, respectively. Moreover, the inhibition in vivo at 0.01 mg in assay [1] is 90%.
For `COCC[n+]1ccn([C@@H]2CC[C@H](C(C(N)=O)(c3ccccc3)c3ccccc3)C2)c1C` [Example 63, 3-((1R,3S)-3-(Carbamoyl(diphenyl)methyl)cyclopentyl)-1-(2-methoxyethyl)-2-methyl-3H-imidazol-1-ium bromide], the values for the Kb on muscarinic M2 receptor (setting [2]) and on muscarinic M3 receptor (setting [3]) were 7.94 nM and 0.316 nM, respectively. In addition, in assay [1], the inhibition in vivo at 0.01 mg is 100%.
In the case of `Cc1n([C@H]2CC[C@@H](C(C(N)=O)(c3ccccc3)c3ccccc3)C2)cc[n+]1Cc1ccccc1` [Example 83, 3-((1S,3R)-3-(Carbamoyl(diphenyl)methyl)cyclopentyl)-1-benzyl-2-methyl-3H-imidazol-1-ium bromide], the Kb on muscarinic M2 receptor (setting [4]) is 5.01 nM; at muscarinic M3 receptor (setting [5]), 0.0794 nM. Further, the inhibition in vivo at 0.01 mg in assay [1] turned out to be 100%.
As to `CC(=O)C[n+]1ccn([C@@H]2CC[C@H](C(C(N)=O)(c3ccccc3)c3ccccc3)C2)c1C` [Example 90, 3-((1R,3S)-3-(Carbamoyl(diphenyl)methyl)cyclopentyl)-2-methyl-1-(2-oxopropyl)-3H-imidazol-1-ium bromide], the Kb at muscarinic M2 receptor (setting [2]) is 316 nM; on muscarinic M3 receptor (setting [3]) it was 0.794 nM. The inhibition in vivo at 0.01 mg in assay [1] is 100%.
On the same counts, the results for `Cc1n([C@@H]2CC[C@H](C(C(N)=O)(c3ccccc3)c3ccccc3)C2)cc[n+]1Cc1ccccc1` [Example 91, 3-((1R,3S)-3-(Carbamoyl(diphenyl)methyl)cyclopentyl)-1-benzyl-2-methyl-3H-imidazol-1-ium bromide] are 3.98 nM, 0.1 nM and 100%.
